Assays:
Type in all cases: physicochemical
[1] = hygroscopicity of crystalline forms
[2] = thermodynamic stability of crystalline forms; details: versus form A2, A3 (b74 also the amorphous form, especially at room temperature)
[3] = chemical stability (thermal stability and light stability)
Excerpt: The expression chemical stability includes, but is not limited to, thermal stability and light stability.

[4] = stability of the basic, non-salt form

Row | hygroscopicity [1] | chemical stability (shelf-life, thermal stability and light stability) [3] | stability in basic, i.e. non-salt, form [4] | SMILES | hygroscopicity compared with other forms ([1]; versus form A2, A3 and the amorphous form, especially at room temperature) | thermodynamic stability compared with other forms [2]
1 | essentially non-hygroscopic | better chemical stability | – | CN(C)CCNC(=O)NC[C@H]1CC[C@@H]2[C@H](O1)c1cc(C(F)(F)F)ccc1N[C@H]2c1ccccc1 [Form A1, 1-(2-Dimethylamino-ethyl)-3-((2R,4aS,5R,10bS)-5-phenyl-9-trifluoromethyl-3,4,4a,5,6,10b-hexahydro-2H-pyrano[3,2-c]quinolin-2-ylmethyl)-urea] | less hygroscopic than form A2, A3 and the amorphous form | thermodynamically more stable than form A2 and A3
2 | – | – | especially stable | CN(C)CCNC(=O)NC[C@H]1CC[C@@H]2[C@H](O1)c1cc(C(F)(F)F)ccc1N[C@H]2c1ccccc1 [compound of formula II, 1-(2-Dimethylamino-ethyl)-3-((2R,4aS,5R,10bS)-5-phenyl-9-trifluoromethyl-3,4,4a,5,6,10b-hexahydro-2H-pyrano[3,2-c]quinolin-2-ylmethyl)-urea] | – | –
